Key:
[1] = test system: tactile (mechanical) allodynia in hindpaws of STZ-diabetic rats; experiment: Anti-allodynia by von Frey paw withdrawal thresholds (PWT) in STZ-diabetic rats; format: in vivo, Wistar rats
Experimental: Following this, the jugular cannula was withdrawn, the vein tied off, and the incision sutured. Following surgery, rats received antibiotic prophylaxis in the form of topical dusting powder over the sutured incisions, as well as a subcutaneous injection of benzylpenicillin (60 mg). Rats were placed in individual cages, kept warm and monitored closely during the surgical recovery period. Rats were classified as diabetic if on day 10 post-STZ administration, their daily water intake was ≧100 mL and their corresponding blood glucose levels (BGLs) were ≧15 mM.
Calibrated von Frey filaments were used to document the time course for the development and maintenance of tactile allodynia (defining symptom of PDN).
(§1) Briefly, baseline PWTs were determined for both hindpaws prior to each antinociceptive testing session in the non-diabetic control group at week 0 as well as in groups of STZ-diabetic rats at 10, 14 and 24 wks.
(§2) The PWT vs time data were normalized by subtracting the pre-dosing baseline PWT values for each individual rat to obtain ΔPWT values as follows: Normalized (Δ)PWT value=Post-treatment PWT value−PWT value prior to treatment.
(§3) ΔPWT versus time curves were then constructed. Trapezoidal integration was used to estimate ΔPWT AUC values for individual rats in the non-diabetic and STZ-diabetic rat treatment groups. ΔPWT AUC versus dose curves were constructed and GraphPad™ Prism was used to estimate the ˜ED50 values.

[2] = test system: hindpaws of control non-diabetic rats; experiment: Antinociception by von Frey PWT in control non-diabetic rats; format: in vivo, Wistar rats; details: single s.c. bolus; morphine 1.8-21.4 μmol/kg, Compound 1 2-20 fmol/kg
Experimental: as §1, §2, §3

STZ-diabetic rats [3] = experiment: Behavioural side-effects in STZ-diabetic rats; format: in vivo; details: Compound 1 800 pmol/kg s.c.; morphine 21 μmol/kg
[4] = test system: non-diabetic control rats; experiment: Tolerance development (7-day continuous s.c. infusion, 2-day washout) in non-diabetic control rats, von Frey PWT; format: in vivo
STZ-diabetic rats [5] = experiment: Tolerance development (7-day s.c. infusion, 2-day washout) in STZ-diabetic rats, von Frey PWT; format: in vivo
[6] = week 10 post-STZ, morphine 2.8 μmol/kg s.c.
[7] = drug-naïve non-diabetic rats, Compound 1 8 fmol/kg, morphine 2.8 mmol/kg (so in the source) s.c. bolus
[8] = non-diabetic rats, second s.c. bolus after 7-day infusion and 2-day washout

## CN1CC[C@]23c4c5ccc(O)c4O[C@H]2[C@@H](O)C=C[C@H]3[C@H]1C5 [morphine, reference compound]
[1]; morphine 1.8-21.4 μmol/kg s.c. (FIG. 2)
  time of peak effect post-dosing: 30 to 60 min
[1]; single s.c. bolus at 10, 14, 24 wks post-STZ
  anti-allodynia in the hindpaws of STZ-diabetic rats: dose-dependent anti-allodynia
[1]; [6]
  mean (±SEM) PWT at time of peak response: 10.7 ± 0.6 g
  reversal of mechanical allodynia at time of peak response: fully reversed mechanical allodynia
[1]; week 14 post-STZ, morphine 2.8 μmol/kg s.c.
  anti-allodynic potency: significantly reduced
[1]; week 14 post-STZ, morphine 10.5 μmol/kg s.c.
  relief of mechanical allodynia at time of peak response: completely relieved mechanical allodynia
[1]; week 24 post-STZ, morphine 10.5 and 21.4 μmol/kg s.c.
  anti-allodynic potency: markedly reduced
[2]
  antinociception in the hindpaws of control non-diabetic rats: dose-dependent antinociception
STZ-diabetic rats [3]
  behavioural side-effects at highest dose: staring and sedation
[4]; drug-naïve non-diabetic rats, first s.c. bolus
  time of peak antinociception post-dosing: 1 h
[4]; [7]
  mean (±SEM) peak PWT: 16.0 (±0.4) g
  mean (±SEM) peak ΔPWT: 4.4 (±0.4) g
[4]; non-diabetic rats
  tolerance after 7-day continuous s.c. infusion: antinociceptive tolerance developed
[4]; non-diabetic rats, after 2-day washout
  antinociception after second bolus, naïve vs "tolerant" rats: tolerant to the antinociceptive effects of morphine
[4]; [8]
  mean (±SEM) peak PWT: 12 (±0.3) g
  mean (±SEM) peak ΔPWT: 0.5 (±0.3) g
STZ-diabetic rats [5]; STZ-diabetic rats
  tolerance after 7-day s.c. infusion: antinociceptive tolerance developed
STZ-diabetic rats [5]; STZ-diabetic rats, after 2-day washout, morphine 10.5 μmol/kg, Compound 1 800 pmol/kg
  anti-allodynia after second bolus (tolerance status): insignificant anti-allodynia
STZ-diabetic rats [5]; naïve STZ-diabetic rats, first s.c. bolus
  time of peak anti-allodynia post-dosing: 1 h
STZ-diabetic rats [5]; naïve STZ-diabetic rats, Compound 1 800 pmol/kg, morphine 10.4 μmol/kg s.c. bolus
  mean (±SEM) peak PWT: 10.7 (±0.3) g

Reference: US8822509B2, “Pain-relieving compositions and uses therefor” (priority 2006, dated 2014)
